Reference: patent US10842749B2, “Compositions and methods of treating therapy resistant cancer and uses thereof” (priority 2012, dated 2020)

Key:
[1] = test system: MDA-MB-231 human breast cancer lung metastasis; test: Murine model of MDA-MB-231 human breast cancer lung metastasis; assay type: in vivo, nude mice; details: Dox 3 mg/kg weekly, 6 weeks
Method: (§1) Applicants selected the murine model of MDA-MB-231 human breast cancer lung metastasis, widely used to study mechanism of pathology and for drug development^37-39, to evaluate therapeutic efficacy of porous silicon/pDox. […] Applicants treated the tumor-bearing mice with free pDox, porous silicon/pDox, and the clinically available drugs doxorubicin and Doxil, beginning one week after tumor inoculation and lasting for 6 weeks. Drugs were dosed biweekly at 6 mg/kg to mice in all treatment groups (10 mice per group) except free Dox.

4T1 lung metastasis [2] = test: 4T1 lung metastasis model, follow-up study (weekly x 4 after surgery)
Method: 4T1 tumor cells were inoculated in the fourth mammary gland fat pad of female BALB/c mice. The primary tumors were surgically removed when they reached 250-300 mm3, and mice (n=10 mice/group) were treated weekly with 6 mg/kg Dox, Doxil, pDox, or Porous silicon/pDox for four consecutive weeks. Tumor growth was monitored by tracking bioluminescent intensity with the Xenogene IVIS-200 imaging system.
To generate the mouse 4T1 lung metastasis model, BALB/c mice were inoculated with 4T1 cells (5×10^4 cells/mouse) into the mammary gland fat pad. […] In the follow-up study, 4T1 cells that were engineered to express luciferase and GFP, and were inoculated into the mammary gland fat pads of female BALB/c mice. The primary tumors were surgically removed once they reached 250-300 mm^3. Mice were treated with 6 mg/kg of the therapeutic agents weekly for 4 weeks, and subsequently maintained to assess survival benefit from treatments.
To evaluate drug dosing requirements and sustainability after administration, Applicants applied a different drug regimen to BALB/c mice bearing 4T1 tumors. Applicants performed complete surgical removal of the primary tumors once they reached 250-300 mm3, and confirmed that the extraction was thorough by the lack of bioluminescence from the luciferase- and GFP-bearing mammary gland fat pads (FIG. 5A). […]

[3] = Tissue distribution of Dox by HPLC in MDA-MB-231 lung metastasis mice
Method: They were sacrificed 1 hour, 1 day, or 7 days later. Dox concentration in major organs was analyzed by HPLC.
Quantitation of doxorubicin was performed using Daunorubicin (Dau, Sigma) as an internal standard^49. Briefly, tissues were homogenized in PBS (100 mg tissue/330 μL PBS), and then mixed with 10 μL Dau (50 μg/mL). A 4-fold volume of the extraction solution containing chloroform and methanol (3/1, v/v) was subsequently added. The mixture was vortexed for 1 minute, and centrifuged at 13,000 rpm for 10 minutes to separate the aqueous and organic phases. The organic phase was collected, and the solvent was evaporated at 25° C. under a flow of nitrogen. The extract was dissolved in 100 μL methanol, and a 10 μL aliquot was used for HPLC analysis.

MDA-MB-231/MDR cells = test: Cell viability of MDR1-transfected MDA-MB-231/MDR cells; assay type: cell-based, human; details: cell viability 72 hours after treatment
Method: (§2) FIGS. 2A-2H show vesicular transport of pDox in tumor cells and effective killing of tumor cells carrying an overexpressed multidrug resistance gene mediated by pDox. […] The presence of doxorubicin (red) in subcellular organelle was visualized by fluorescence microscopy. Nuclei were stained blue with DAPI and late endosomes/lysosomes were stained green with LysoTracker. Nuclear accumulation could be detected as early as 15 minutes after treatment of cells with Dox, while co-localization of Dox with LysoTracker was apparent in pDox treated cells 15 minutes and 1 hour after treatment. […] The cells were sensitive to pDox, but resistant to treatment with free Dox. FIG. 2D depicts fluorescence images of subcellular organelles. Nuclei were stained in blue DAPI and lysosomes were stained in green with LysoTracker. Images of Dox, nuclei and lysosomes were merged to show subcellular localization of Dox at different time points.
Many breast cancer patients are resistant to chemotherapy due to drug efflux. About 25-50% of previously untreated breast cancers express the MDR1 gene encoding p-glycoprotein, one of the drug efflux pump proteins^17. Overexpression of MDR1 has also been attributed to acquired resistance to anthracyclines and cross-resistance to other chemotherapy drugs in the clinic^15. […]

4T1 lung metastasis [4] = test: 4T1 lung metastasis model, pilot study (two treatments); assay type: in vivo, BALB/c mice; details: 6 mg/kg on day of surgery and 10 days later
From the text: All mice were sacrificed three weeks after the first treatment, and lung tissues were examined for tumor metastasis. […] The arrows indicate tumor nodules in the lung (FIG. 5F-2).
Thus the 4T1 syngeneic tumor mice represent a second Triple Negative Breast Cancer (TNBC) tumor model in this study. When inoculated into the mammary gland fat pad of BALB/c mice, 4T1 tumor cells formed rapidly growing primary tumors. If left untreated, all of the mice would eventually develop lung metastasis from primary tumors. In a pilot study, surgical removal of primary tumors (about 400 mm^3 in size) was performed, and then PBS, Dox, pDox, or Porous silicon/pDox was administered once immediately after surgery and again 10 days post-surgery.

[5] = Heart H&E staining and body weight in treated tumor mice
Method: FIGS. 4A-4C show H&E staining of heart tissues in mice treated with 6 mg/kg free Dox, Doxil, or porous silicon/pDox for 6 weeks.
as §1

MDA-MB-231 cells = test: Intracellular trafficking of Dox and pDox; assay type: cell-based, human; details: fluorescence microscopy
Method: as §2, with “Images of Dox, nuclei and lysosomes were merged to show subcellular localization of Dox at different time points.” left out
Applicants conducted studies to compare cellular uptake and subcellular trafficking of free Dox and pDox nanoparticles in MDA-MB-231 cells. […] However, no nuclear accumulation was detected in the pDox-treated cells at the same time (FIG. 2A and FIG. 2D). The red fluorescence from pDox could be co-localized with the green LysoTracker-positive subcellular organelles beginning at 15 minutes, and reached a high level one hour after pDox treatment (FIG. 2A and FIG. 2D), indicating pDox entered tumor cells via vesicular transport. […]

For `COc1cccc2c1C(=O)c1c(O)c3c(c(O)c1C2=O)C[C@@](O)(C(=O)CO)C[C@@H]3O[C@H]1C[C@H](N)[C@H](O)[C@H](C)O1` [Dox, doxorubicin], the “extension of median survival over control groups” value ([1]; pDox 6 mg/kg biweekly) was 2 weeks, the Median survival ([1]; Doxil, pDox, MSV/pDox 6 mg/kg biweekly, tail vein) was 98.5 days and the “extension of median survival over the PBS control” value (4T1 lung metastasis [2]; 6 mg/kg weekly for 4 weeks) was 13 days. For the same compound, the “Median survival after tumor inoculation” value (4T1 lung metastasis [2]; 6 mg/kg weekly for 4 weeks after surgical removal of primary tumor) was 62 days, the “Dox concentration in the heart” value ([3]; 6 mg/kg i.v., one hour after dosing) was “over 10 μg/g organ” and the “plasma Dox” value ([3]; 1 hour post-dosing) was “barely detectable”. For the same compound, the “sensitivity of MDR1-expressing cells to treatment” value (MDA-MB-231/MDR cells) was “resistant”, the “lung tumor nodules / metastasis” value (4T1 lung metastasis [4]) was “multiple, large tumor nodules in the lung” and the “heart histology (H&E)” value ([5]; 6 mg/kg biweekly) was “deformation of myocardial fibers”. For the same compound, the body weight change ([5]; Dox 3 mg/kg weekly, Doxil, porous silicon/pDox 6 mg/kg biweekly) was “initial drop in body weight but recovered shortly” and the “time of nuclear accumulation after addition of drug” value (MDA-MB-231 cells) was 15 min.
